Experimental data as given in ChEMBL document CHEMBL1240489, “Discovery of N-{1-[3-(3-oxo-2,3-dihydrobenzo[1,4]oxazin-4-yl)propyl]piperidin-4-yl}-2-phenylacetamide (Lu AE51090): an allosteric muscarinic M1 receptor agonist with unprecedented selectivity and procognitive potential” (J Med Chem, 2010).
Active and inactive are the calls of the source. The calls are words filed in the database; no cut-off is given here.

How the values were obtained:
[1] = molecular target: Histamine H2 receptor (Homo sapiens, UniProt P25021); test: Binding affinity to human histamine H2 receptor by radioligand displacement assay
[2] = molecular target: 5-hydroxytryptamine receptor 7 (Homo sapiens, UniProt P34969); test: Binding affinity to human 5-HT7 receptor by radioligand displacement assay
[3] = Drug level in C57/6J mouse brain at 20 mg/kg, sc after 60 mins; assay type: ADME, organism-based; set-up: dose 20 mg/kg, route subcutaneous; conditions: read-out: Activity
[4] = molecular target: Cannabinoid receptor 1 (Homo sapiens, UniProt P21554); test: Binding affinity to human CB1 receptor by radioligand displacement assay
[5] = molecular target: D(2) dopamine receptor (Homo sapiens, UniProt P14416); test: Binding affinity to human dopamine D2S receptor by radioligand displacement assay
[6] = system: Mus musculus; test: Reversal of 60 seconds delay-induced memory decay in C57Bl/6J mouse assessed as positive alteration at 10 to 20 mg/kg, sc for 1 week by Y-maze test; assay type: functional, organism-based
[7] = organism: Homo sapiens; test: Hepatic blood flow in human; assay type: ADME, organism-based, Liver
[8] = molecular target: Alpha-2B adrenergic receptor (Homo sapiens, UniProt P18089); test: Binding affinity to adrenergic alpha2B receptor by radioligand displacement assay
[9] = molecular target: Alpha-1D adrenergic receptor (Homo sapiens, UniProt P25100); test: Binding affinity to human adrenergic Alpha-1D receptor by radioligand displacement assay
[10] = molecular target: Endothelin-1 receptor (Homo sapiens, UniProt P25101); test: Binding affinity to human ETA receptor by radioligand displacement assay
[11] = molecular target: T1, Muscarinic acetylcholine receptor M1 (Homo sapiens, UniProt P11229)
T1 sequence (P11229 whole entry): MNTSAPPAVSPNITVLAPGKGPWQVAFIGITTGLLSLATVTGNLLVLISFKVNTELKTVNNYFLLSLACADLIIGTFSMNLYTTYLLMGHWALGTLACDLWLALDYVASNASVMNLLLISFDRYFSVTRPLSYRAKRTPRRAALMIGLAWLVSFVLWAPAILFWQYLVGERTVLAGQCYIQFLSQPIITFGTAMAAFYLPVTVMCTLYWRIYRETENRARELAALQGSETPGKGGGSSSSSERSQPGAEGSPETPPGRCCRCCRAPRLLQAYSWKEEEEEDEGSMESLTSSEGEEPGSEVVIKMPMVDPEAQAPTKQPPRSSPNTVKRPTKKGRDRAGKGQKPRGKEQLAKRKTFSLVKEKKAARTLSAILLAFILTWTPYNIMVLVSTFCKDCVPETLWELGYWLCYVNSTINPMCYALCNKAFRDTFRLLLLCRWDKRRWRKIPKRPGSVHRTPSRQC

[12] = molecular target: Muscarinic acetylcholine receptor M3 (Homo sapiens, UniProt P20309); test: Binding affinity to human muscarinic M3 receptor by radioligand displacement assay
[13] = molecular target: Phosphodiesterase 4 (Homo sapiens, UniProt P27815+Q08499+Q07343+Q08493); test: Binding affinity to human PDE4 rolipram binding site by radioligand displacement assay; assay type: protein assay
[14] = molecular target: Urotensin-2 receptor (Homo sapiens) (UniProt Q9UKP6); test: Binding affinity to human UT1 receptor by radioligand displacement assay
[15] = molecular target: T1, Muscarinic acetylcholine receptor M1; test: Binding affinity to human muscarinic M1 receptor by radioligand displacement assay
[16] = molecular target: T2, Adenosine receptor A1 (Homo sapiens, UniProt P30542); test: Binding affinity to human adenosine A1 receptor agonist site by radioligand displacement assay
[17] = molecular target: T3, Muscarinic acetylcholine receptor M5 (Homo sapiens, UniProt P08912); test: biochemical
T3 sequence (P08912 whole entry): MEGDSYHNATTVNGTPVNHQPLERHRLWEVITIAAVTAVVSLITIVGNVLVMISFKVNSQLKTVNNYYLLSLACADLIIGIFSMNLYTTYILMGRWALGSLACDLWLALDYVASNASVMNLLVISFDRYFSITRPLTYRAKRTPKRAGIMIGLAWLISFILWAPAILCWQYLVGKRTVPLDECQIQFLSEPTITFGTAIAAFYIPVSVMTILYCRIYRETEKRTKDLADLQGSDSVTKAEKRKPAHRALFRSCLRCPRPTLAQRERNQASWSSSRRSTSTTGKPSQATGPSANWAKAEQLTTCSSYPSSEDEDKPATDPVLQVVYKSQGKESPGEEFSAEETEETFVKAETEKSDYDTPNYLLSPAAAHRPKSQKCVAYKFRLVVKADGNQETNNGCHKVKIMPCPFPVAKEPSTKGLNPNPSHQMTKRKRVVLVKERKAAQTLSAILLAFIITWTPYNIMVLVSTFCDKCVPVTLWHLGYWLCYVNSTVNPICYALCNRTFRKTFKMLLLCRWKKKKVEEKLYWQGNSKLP
Description: Displacement of [3H]-4-DAMP from human muscarinic M5 receptor expressed in BHK-21 cells

[18] = Binding affinity to GABAA receptor by radioligand displacement assay
[19] = system: Hepatocyte; test: Intrinsic clearance in rat hepatocytes at 1 uM after up to 60 mins by LC/MS-MS analysis; assay type: ADME, cell-based, Liver; conditions: 1 h
[20] = molecular target: 5-hydroxytryptamine receptor 1B (Homo sapiens, UniProt P28222); test: Binding affinity to 5-HT1B receptor by radioligand displacement assay
[21] = molecular target: Glucocorticoid receptor (Homo sapiens, UniProt P04150); test: Binding affinity to human glucocorticoid receptor by radioligand displacement assay
[22] = molecular target: High affinity choline transporter 1 (Homo sapiens, UniProt Q9GZV3); test: Binding affinity to human choline transporter (CHT1) by radioligand displacement assay
[23] = molecular target: T2, Adenosine receptor A1; test: Binding affinity to human adenosine A1 receptor by radioligand displacement assay

T2 sequence (P30542 whole entry): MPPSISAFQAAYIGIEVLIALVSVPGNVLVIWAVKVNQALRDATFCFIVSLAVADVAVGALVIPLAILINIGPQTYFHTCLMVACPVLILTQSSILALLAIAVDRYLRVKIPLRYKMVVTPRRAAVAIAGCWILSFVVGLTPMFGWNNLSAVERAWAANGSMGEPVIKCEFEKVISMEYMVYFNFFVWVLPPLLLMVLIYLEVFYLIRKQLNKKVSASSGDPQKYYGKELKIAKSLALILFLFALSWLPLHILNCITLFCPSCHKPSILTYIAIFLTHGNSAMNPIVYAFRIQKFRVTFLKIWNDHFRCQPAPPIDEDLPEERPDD
Chain of 5-hydroxytryptamine receptor 1B (P28222 whole entry): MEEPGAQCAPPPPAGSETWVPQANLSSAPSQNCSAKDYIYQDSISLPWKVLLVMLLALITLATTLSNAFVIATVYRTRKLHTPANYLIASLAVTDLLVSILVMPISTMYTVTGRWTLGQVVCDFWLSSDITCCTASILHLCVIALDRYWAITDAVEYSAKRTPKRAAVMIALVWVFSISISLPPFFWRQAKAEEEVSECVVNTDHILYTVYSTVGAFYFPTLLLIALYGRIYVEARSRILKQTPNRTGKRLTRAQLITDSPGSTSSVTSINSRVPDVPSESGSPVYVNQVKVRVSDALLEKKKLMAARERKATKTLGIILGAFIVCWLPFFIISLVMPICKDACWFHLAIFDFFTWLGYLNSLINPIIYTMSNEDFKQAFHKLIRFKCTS
Chain of Muscarinic acetylcholine receptor M3 (P20309 whole entry): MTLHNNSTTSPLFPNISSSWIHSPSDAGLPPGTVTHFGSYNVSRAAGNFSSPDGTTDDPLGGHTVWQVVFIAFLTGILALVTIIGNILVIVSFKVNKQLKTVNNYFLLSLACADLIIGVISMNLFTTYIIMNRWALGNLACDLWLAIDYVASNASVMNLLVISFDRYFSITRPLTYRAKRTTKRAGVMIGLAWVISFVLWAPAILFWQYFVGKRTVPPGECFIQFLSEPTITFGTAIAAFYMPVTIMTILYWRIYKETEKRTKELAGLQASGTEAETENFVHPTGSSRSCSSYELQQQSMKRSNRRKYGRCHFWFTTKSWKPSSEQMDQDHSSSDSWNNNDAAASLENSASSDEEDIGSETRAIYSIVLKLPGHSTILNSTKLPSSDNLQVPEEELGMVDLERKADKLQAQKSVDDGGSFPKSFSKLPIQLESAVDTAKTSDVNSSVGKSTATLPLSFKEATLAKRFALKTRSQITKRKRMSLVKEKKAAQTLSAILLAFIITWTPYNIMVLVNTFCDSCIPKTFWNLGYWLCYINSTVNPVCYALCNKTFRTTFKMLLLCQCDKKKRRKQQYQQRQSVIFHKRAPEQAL
Chain of Cannabinoid receptor 1 (P21554 whole entry): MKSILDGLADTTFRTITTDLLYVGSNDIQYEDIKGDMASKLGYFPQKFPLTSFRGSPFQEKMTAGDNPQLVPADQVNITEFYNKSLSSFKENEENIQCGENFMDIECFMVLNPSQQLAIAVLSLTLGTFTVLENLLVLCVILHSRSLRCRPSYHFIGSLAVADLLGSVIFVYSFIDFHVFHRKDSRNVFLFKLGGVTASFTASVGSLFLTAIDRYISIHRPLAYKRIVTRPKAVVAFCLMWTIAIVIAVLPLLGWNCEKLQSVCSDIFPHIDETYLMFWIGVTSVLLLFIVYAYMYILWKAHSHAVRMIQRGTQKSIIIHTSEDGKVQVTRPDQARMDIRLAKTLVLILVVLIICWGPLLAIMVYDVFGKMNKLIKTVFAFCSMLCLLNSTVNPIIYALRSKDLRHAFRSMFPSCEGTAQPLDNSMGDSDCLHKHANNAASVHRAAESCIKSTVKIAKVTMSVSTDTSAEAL
Chain of Glucocorticoid receptor (P04150 whole entry): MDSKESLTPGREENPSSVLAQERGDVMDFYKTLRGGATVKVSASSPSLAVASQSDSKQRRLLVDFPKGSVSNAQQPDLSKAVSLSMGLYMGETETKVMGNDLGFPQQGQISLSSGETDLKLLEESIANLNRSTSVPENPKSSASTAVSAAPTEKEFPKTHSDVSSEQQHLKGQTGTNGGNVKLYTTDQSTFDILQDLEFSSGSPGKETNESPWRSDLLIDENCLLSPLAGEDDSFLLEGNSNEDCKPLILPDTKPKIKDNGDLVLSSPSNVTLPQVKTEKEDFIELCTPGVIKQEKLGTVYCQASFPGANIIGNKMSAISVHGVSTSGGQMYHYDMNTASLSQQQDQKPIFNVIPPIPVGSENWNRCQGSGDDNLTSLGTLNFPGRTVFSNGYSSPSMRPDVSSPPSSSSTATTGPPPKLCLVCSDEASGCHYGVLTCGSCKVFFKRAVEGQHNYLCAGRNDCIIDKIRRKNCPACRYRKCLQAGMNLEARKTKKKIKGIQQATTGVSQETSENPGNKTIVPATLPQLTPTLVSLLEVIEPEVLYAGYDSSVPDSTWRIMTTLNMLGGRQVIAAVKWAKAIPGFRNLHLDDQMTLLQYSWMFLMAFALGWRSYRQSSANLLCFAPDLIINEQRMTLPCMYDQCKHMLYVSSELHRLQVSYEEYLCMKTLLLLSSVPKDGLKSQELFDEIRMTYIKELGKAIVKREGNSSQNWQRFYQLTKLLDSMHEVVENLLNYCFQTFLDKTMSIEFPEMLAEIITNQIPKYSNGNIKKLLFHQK
Chain of High affinity choline transporter 1 (Q9GZV3 whole entry): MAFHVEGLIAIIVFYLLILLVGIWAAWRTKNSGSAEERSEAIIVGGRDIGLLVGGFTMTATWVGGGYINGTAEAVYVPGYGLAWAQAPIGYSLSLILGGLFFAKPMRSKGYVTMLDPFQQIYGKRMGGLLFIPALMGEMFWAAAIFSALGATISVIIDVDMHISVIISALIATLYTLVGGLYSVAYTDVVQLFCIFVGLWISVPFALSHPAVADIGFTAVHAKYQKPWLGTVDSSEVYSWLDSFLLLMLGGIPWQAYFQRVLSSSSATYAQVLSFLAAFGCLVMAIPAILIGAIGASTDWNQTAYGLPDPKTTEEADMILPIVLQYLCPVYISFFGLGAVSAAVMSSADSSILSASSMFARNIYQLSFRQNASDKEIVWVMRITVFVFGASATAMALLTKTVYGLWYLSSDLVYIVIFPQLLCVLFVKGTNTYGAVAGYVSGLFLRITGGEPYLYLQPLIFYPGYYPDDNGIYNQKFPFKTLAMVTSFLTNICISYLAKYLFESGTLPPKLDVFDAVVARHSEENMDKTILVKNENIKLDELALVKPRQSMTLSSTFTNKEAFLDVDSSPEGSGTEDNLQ
Chain of D(2) dopamine receptor (P14416 whole entry): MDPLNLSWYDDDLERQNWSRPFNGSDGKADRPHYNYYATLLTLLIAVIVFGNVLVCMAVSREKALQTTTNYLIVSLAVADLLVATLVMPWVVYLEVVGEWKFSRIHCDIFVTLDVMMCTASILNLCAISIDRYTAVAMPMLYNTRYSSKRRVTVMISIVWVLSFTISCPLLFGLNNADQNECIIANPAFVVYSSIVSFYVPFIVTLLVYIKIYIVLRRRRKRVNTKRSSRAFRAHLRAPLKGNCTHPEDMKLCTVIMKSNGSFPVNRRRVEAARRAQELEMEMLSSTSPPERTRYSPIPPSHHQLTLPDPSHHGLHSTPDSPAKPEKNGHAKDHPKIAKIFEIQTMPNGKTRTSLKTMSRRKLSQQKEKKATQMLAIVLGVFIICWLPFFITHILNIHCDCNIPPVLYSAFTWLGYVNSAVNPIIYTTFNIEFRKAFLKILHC
Chain of Urotensin-2 receptor (Homo sapiens) (Q9UKP6 whole entry, looked up): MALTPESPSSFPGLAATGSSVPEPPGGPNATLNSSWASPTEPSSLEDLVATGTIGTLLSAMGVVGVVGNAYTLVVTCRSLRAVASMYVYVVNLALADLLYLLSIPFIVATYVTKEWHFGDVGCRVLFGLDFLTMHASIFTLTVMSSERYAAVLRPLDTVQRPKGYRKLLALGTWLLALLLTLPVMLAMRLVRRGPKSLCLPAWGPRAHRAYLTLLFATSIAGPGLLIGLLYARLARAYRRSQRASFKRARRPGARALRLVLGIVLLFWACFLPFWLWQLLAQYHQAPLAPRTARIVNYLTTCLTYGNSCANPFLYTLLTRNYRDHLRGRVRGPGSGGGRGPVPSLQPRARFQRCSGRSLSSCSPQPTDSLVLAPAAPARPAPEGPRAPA
Chain of Histamine H2 receptor (P25021 whole entry): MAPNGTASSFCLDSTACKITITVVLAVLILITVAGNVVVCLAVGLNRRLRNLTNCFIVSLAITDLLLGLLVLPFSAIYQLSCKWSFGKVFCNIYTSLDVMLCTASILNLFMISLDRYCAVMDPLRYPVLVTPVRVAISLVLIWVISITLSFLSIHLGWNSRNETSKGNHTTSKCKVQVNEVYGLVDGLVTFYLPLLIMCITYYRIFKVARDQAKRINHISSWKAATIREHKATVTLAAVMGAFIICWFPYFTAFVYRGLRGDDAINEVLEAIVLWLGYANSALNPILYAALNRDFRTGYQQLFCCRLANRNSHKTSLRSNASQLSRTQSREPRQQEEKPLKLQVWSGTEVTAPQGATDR
Chain of Endothelin-1 receptor (P25101 whole entry): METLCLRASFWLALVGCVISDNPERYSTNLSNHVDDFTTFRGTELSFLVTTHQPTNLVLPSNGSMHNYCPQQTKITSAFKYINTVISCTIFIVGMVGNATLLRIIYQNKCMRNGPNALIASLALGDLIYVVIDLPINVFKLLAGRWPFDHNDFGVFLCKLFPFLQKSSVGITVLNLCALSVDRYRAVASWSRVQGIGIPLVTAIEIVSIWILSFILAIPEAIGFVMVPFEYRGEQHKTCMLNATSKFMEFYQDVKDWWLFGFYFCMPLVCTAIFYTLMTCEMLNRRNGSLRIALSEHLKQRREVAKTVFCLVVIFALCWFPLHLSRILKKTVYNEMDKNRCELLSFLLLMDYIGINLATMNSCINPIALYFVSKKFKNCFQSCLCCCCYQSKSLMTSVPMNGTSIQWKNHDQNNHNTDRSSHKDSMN

In the case of `O=C(Cc1ccccc1)NC1CCN(CCCN2C(=O)COc3ccccc32)CC1`, the Ki [1] is reported as at least 1000 nM, the Ki [2] is reported as at least 1000 nM and the concentration at 1 h [3] is reported as 240 ng/g. For the same compound, the Ki [4] was at least 1000 nM, the Ki [5] was at least 1000 nM and the Activity [6] was “Active”. For the same compound, the QH [7] was 1.4 L/min, the Ki [8] was at least 1000 nM and the Ki [9] was at least 1000 nM. The Ki [10] was at least 1000 nM, the EC50 [11] was 61 nM and the Ki [12] was at least 1000 nM. For the same compound, the Ki [13] was “>= 1000 nM”, the Ki [14] was at least 1000 nM and the Ki [15] was at least 1000 nM. The Ki [16] was at least 1000 nM, the Ki [17] was 8900 nM and the Ki [18] was at least 1000 nM. The CL [19] was 100 mL/min, the Ki [20] was at least 1000 nM and the Ki [21] was at least 1000 nM. The Ki [22] was at least 1000 nM and the Ki [23] was at least 1000 nM.
